{"source": "patent US9340590B2", "about": "(priority 2011, dated 2016)", "note": "Positions of bridges follow the written chain, without caps; N, C: chain ends. Residues, ends and D or L forms follow the SMILES beside them."}
{"molecular_target": "hNav1.7 (Homo sapiens, UniProt Q15858)", "sequence (Q15858 whole entry, looked up)": "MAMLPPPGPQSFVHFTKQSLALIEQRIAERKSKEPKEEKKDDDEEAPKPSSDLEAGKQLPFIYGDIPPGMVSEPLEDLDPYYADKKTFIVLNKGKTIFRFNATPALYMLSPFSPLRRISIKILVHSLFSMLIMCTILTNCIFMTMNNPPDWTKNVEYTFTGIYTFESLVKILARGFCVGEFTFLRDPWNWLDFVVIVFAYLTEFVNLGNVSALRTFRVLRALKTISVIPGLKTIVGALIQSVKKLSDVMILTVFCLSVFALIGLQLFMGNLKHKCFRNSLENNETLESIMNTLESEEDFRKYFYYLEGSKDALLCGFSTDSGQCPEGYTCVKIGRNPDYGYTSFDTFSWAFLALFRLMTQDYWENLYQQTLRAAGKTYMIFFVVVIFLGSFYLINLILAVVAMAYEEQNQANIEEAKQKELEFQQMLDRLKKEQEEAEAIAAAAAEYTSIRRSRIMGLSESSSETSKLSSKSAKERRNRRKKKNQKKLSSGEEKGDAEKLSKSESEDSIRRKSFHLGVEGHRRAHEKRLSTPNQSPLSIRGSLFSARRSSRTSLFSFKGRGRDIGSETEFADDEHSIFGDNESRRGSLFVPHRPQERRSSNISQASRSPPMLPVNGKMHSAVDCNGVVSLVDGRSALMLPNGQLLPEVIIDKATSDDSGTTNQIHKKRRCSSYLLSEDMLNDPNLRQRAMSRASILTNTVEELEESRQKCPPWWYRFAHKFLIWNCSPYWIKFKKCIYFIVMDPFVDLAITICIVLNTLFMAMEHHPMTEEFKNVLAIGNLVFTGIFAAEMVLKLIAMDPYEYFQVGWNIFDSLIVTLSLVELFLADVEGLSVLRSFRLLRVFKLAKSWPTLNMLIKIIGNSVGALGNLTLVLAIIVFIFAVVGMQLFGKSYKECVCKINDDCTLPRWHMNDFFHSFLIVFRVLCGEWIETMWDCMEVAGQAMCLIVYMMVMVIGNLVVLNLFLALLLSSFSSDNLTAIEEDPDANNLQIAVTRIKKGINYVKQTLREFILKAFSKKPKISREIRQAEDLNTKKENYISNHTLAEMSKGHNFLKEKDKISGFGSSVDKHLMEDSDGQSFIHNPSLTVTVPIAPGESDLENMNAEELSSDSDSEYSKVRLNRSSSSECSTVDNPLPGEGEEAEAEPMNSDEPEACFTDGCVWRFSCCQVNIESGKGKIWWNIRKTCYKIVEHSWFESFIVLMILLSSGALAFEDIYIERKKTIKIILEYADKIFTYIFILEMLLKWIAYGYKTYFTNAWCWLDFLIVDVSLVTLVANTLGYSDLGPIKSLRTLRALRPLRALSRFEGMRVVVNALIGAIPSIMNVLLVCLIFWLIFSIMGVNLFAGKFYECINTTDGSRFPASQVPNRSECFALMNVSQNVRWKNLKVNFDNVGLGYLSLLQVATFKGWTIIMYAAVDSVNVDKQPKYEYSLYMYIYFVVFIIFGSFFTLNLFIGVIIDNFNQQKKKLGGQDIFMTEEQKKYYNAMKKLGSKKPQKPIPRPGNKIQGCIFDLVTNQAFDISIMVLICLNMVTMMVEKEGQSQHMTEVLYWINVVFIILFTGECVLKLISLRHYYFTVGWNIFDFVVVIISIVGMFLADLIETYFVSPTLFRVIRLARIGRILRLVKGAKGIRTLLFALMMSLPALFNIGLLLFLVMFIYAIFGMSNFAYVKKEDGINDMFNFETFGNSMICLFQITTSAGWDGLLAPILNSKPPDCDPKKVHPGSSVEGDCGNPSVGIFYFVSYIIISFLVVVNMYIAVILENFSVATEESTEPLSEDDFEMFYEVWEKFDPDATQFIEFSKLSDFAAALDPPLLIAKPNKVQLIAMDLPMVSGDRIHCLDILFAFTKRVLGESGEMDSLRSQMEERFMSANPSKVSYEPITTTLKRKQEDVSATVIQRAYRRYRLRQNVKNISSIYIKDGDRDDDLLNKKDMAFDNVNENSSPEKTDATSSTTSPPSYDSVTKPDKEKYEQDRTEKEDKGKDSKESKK", "experiment": "cell-based", "settings": "Nav1.7 Use IC50", "units": {"IC50": "nM"}}
{"smiles": "CSCC[C@@H]1NC(=O)[C@H](Cc2ccccc2)NC(=O)CNC(=O)[C@H](CC(C)C)NC(=O)[C@@H](NC(=O)[C@@H](N)CC(=O)O)CSSC[C@@H]2NC(=O)[C@@H]3CSSC[C@@H](C(=O)N[C@@H](CCCCN)C(=O)N[C@@H](Cc4ccc(O)cc4)C(=O)N[C@H](C(=O)N[C@@H](Cc4ccccc4)C(N)=O)C(C)C)NC(=O)[C@H](Cc4c[nH]c5ccccc45)NC(=O)[C@H](CCCCN)NC(=O)[C@H](Cc4cnc[nH]4)NC(=O)[C@H]([C@@H](C)O)NC(=O)[C@H](CCCNC(=N)N)NC(=O)[C@H](CO)NC(=O)[C@H](CSSC[C@H](NC(=O)[C@H](CCCCN)NC(=O)[C@H](CCCNC(=N)N)NC1=O)C(=O)N[C@@H](CC(N)=O)C(=O)N1CCC[C@H]1C(=O)N[C@@H](CC(=O)O)C(=O)N[C@@H](CC(N)=O)C(=O)N[C@@H](CC(=O)O)C(=O)N[C@@H](CCCCN)C(=O)N3)NC(=O)[C@H](C(C)C)NC(=O)[C@H](CC(C)C)NC(=O)[C@H](CC(N)=O)NC(=O)[C@@H]1CCCN1C(=O)[C@H](CCCNC(=N)N)NC2=O", "note": "[[Asn10]GpTx-1(1-34)] (H-DCLGFMRKCNPDNDKCCRPNLVCSRTHKWCKYVF-NH2; disulfide 2-17, 9-23, 16-30)", "IC50": 2}
{"smiles": "CSCC[C@@H]1NC(=O)[C@H](Cc2ccccc2)NC(=O)CNC(=O)[C@H](CC(C)C)NC(=O)[C@@H](NC(=O)[C@@H](N)CC(=O)O)CSSC[C@@H]2NC(=O)[C@@H]3CSSC[C@@H](C(=O)N[C@@H](CCCCN)C(=O)N[C@@H](Cc4ccc(O)cc4)C(=O)N[C@H](C(=O)N[C@@H](Cc4ccccc4)C(N)=O)C(C)C)NC(=O)[C@H](Cc4c[nH]c5ccccc45)NC(=O)[C@H](CCCCN)NC(=O)[C@H](Cc4cnc[nH]4)NC(=O)[C@H]([C@@H](C)O)NC(=O)[C@H](CCCNC(=N)N)NC(=O)[C@H](CO)NC(=O)[C@H](CSSC[C@H](NC(=O)[C@H](CCCCN)NC(=O)[C@H](CCCNC(=N)N)NC1=O)C(=O)N[C@@H](CC(=O)O)C(=O)N1CCC[C@H]1C(=O)N[C@@H](CC(=O)O)C(=O)N[C@@H](CC(N)=O)C(=O)N[C@@H](CC(=O)O)C(=O)N[C@@H](CCCCN)C(=O)N3)NC(=O)[C@H](C(C)C)NC(=O)[C@H](CC(C)C)NC(=O)[C@H](CC(N)=O)NC(=O)[C@@H]1CCCN1C(=O)[C@H](CCCNC(=N)N)NC2=O", "note": "[[Asp10]GpTx-1(1-34)] (H-DCLGFMRKCDPDNDKCCRPNLVCSRTHKWCKYVF-NH2; disulfide 2-17, 9-23, 16-30)", "IC50": 3}
{"smiles": "CC[C@H](C)[C@@H]1NC(=O)[C@@H]2CSSC[C@@H]3NC(=O)[C@H](C(C)C)NC(=O)[C@H](CC(C)C)NC(=O)[C@H](CC(N)=O)NC(=O)[C@@H]4CCCN4C(=O)[C@H](CCCNC(=N)N)NC(=O)[C@H](CSSC[C@H](NC(=O)[C@@H](N)CC(=O)O)C(=O)N[C@@H](CC(C)C)C(=O)NCC(=O)N[C@@H](Cc4ccccc4)C(=O)N[C@@H](CCSC)C(=O)N[C@@H](CCCNC(=N)N)C(=O)N[C@@H](CCCCN)C(=O)N2)NC(=O)[C@H](CSSC[C@@H](C(=O)N[C@@H](CCCCN)C(=O)N[C@@H](Cc2ccc(O)cc2)C(=O)N[C@H](C(=O)N[C@@H](Cc2ccccc2)C(N)=O)C(C)C)NC(=O)[C@H](Cc2c[nH]c4ccccc24)NC(=O)[C@H](CC(=O)O)NC(=O)[C@H](Cc2cnc[nH]2)NC(=O)[C@H]([C@@H](C)O)NC(=O)[C@H](CCCNC(=N)N)NC(=O)[C@H](CO)NC3=O)NC(=O)[C@H](CCCCN)NC(=O)[C@H](CC(=O)O)NC(=O)[C@H](CC(N)=O)NC(=O)[C@H](CC(=O)O)NC(=O)[C@@H]2CCCN2C1=O", "note": "[[Asp28]GpTx-1(1-34)] (H-DCLGFMRKCIPDNDKCCRPNLVCSRTHDWCKYVF-NH2; disulfide 2-17, 9-23, 16-30)", "IC50": 15}
{"smiles": "CC[C@H](C)[C@@H]1NC(=O)[C@@H]2CSSC[C@@H]3NC(=O)[C@H](C(C)C)NC(=O)[C@H](CC(C)C)NC(=O)[C@H](CC(N)=O)NC(=O)[C@@H]4CCCN4C(=O)[C@H](CCCNC(=N)N)NC(=O)[C@H](CSSC[C@H](NC(=O)[C@@H](N)CC(=O)O)C(=O)N[C@@H](CC(C)C)C(=O)NCC(=O)N[C@@H](C4CCCCC4)C(=O)N[C@@H](CCSC)C(=O)N[C@@H](CCCNC(=N)N)C(=O)N[C@@H](CCCCN)C(=O)N2)NC(=O)[C@H](CSSC[C@@H](C(=O)N[C@@H](CCCCN)C(=O)N[C@@H](Cc2ccc(O)cc2)C(=O)N[C@H](C(=O)N[C@@H](Cc2ccccc2)C(N)=O)C(C)C)NC(=O)[C@H](Cc2c[nH]c4ccccc24)NC(=O)[C@H](CCCCN)NC(=O)[C@H](Cc2cnc[nH]2)NC(=O)[C@H]([C@@H](C)O)NC(=O)[C@H](CCCNC(=N)N)NC(=O)[C@H](CO)NC3=O)NC(=O)[C@H](CCCCN)NC(=O)[C@H](CC(=O)O)NC(=O)[C@H](CC(N)=O)NC(=O)[C@H](CC(=O)O)NC(=O)[C@@H]2CCCN2C1=O", "note": "[[Chg5]GpTx-1(1-34)]", "IC50": 7}
{"molecular_target": "hNav1.7 (Homo sapiens, UniProt Q15858)", "experiment": "cell-based", "settings": "read-out: Nav1.7 Use IC50", "units": {"IC50": "nM"}}
{"smiles": "CC[C@H](C)[C@@H]1NC(=O)[C@@H]2CSSC[C@@H]3NC(=O)[C@H](C(C)C)NC(=O)[C@H](CC(C)C)NC(=O)[C@H](CC(N)=O)NC(=O)[C@@H]4CCCN4C(=O)[C@H](CCCNC(=N)N)NC(=O)[C@H](CSSC[C@H](NC(=O)[C@@H](N)CC(=O)O)C(=O)N[C@@H](CC(C)C)C(=O)NCC(=O)N[C@@H](C)C(=O)N[C@@H](Cc4ccccc4)C(=O)N[C@@H](CCCNC(=N)N)C(=O)N[C@@H](CCCCN)C(=O)N2)NC(=O)[C@H](CSSC[C@@H](C(=O)N[C@@H](CCCCN)C(=O)N[C@@H](Cc2ccc(O)cc2)C(=O)N[C@H](C(=O)N[C@@H](Cc2ccccc2)C(N)=O)C(C)C)NC(=O)[C@H](Cc2c[nH]c4ccccc24)NC(=O)[C@H](CCCCN)NC(=O)[C@H](Cc2c[nH]cn2)NC(=O)[C@H](CC(C)C)NC(=O)[C@H](CCCNC(=N)N)NC(=O)[C@H](CO)NC3=O)NC(=O)[C@H](CCCCN)NC(=O)[C@H](CC(=O)O)NC(=O)[C@H](CC(N)=O)NC(=O)[C@H](CC(=O)O)NC(=O)[C@@H]2CCCN2C1=O", "note": "[[Ala5;Phe6;Leu26]GpTx-1(1-34)] (H-DCLGAFRKCIPDNDKCCRPNLVCSRLHKWCKYVF-NH2; disulfide 2-17, 9-23, 16-30)", "IC50": 4}
{"smiles": "CC[C@H](C)[C@@H]1NC(=O)[C@@H]2CSSC[C@@H]3NC(=O)[C@H](C(C)C)NC(=O)[C@H](CC(C)C)NC(=O)[C@H](CC(N)=O)NC(=O)[C@@H]4CCCN4C(=O)[C@H](CCCNC(=N)N)NC(=O)[C@H](CSSC[C@H](NC(=O)[C@@H](N)CC(=O)O)C(=O)N[C@@H](CC(C)C)C(=O)NCC(=O)N[C@@H](Cc4ccccc4)C(=O)N[C@@H](CCSC)C(=O)N[C@@H](CCCNC(=N)N)C(=O)N[C@@H](CCCCN)C(=O)N2)NC(=O)[C@H](CSSC[C@@H](C(=O)N[C@@H](CCCCN)C(=O)N[C@@H](Cc2ccc(O)cc2)C(=O)N[C@H](C(=O)N[C@@H](Cc2ccccc2)C(N)=O)C(C)C)NC(=O)[C@H](Cc2c[nH]c4ccccc24)NC(=O)[C@H](CCCCN)NC(=O)[C@H](Cc2c[nH]cn2)NC(=O)[C@H](CCCNC(=N)N)NC(=O)[C@H](CCCNC(=N)N)NC(=O)[C@H](CO)NC3=O)NC(=O)[C@H](CCCCN)NC(=O)[C@H](CC(=O)O)NC(=O)[C@H](CC(N)=O)NC(=O)[C@H](CC(=O)O)NC(=O)[C@@H]2CCCN2C1=O", "note": "[[Arg26]GpTx-1(1-34)] (H-DCLGFMRKCIPDNDKCCRPNLVCSRRHKWCKYVF-NH2; disulfide 2-17, 9-23, 16-30)", "IC50": 5}
